Biological target: Integrase (Human immunodeficiency virus 1, UniProt Q7ZJM1)
Assay: Inhibitory activity against HIV-1 Integrase (HIV-1-IN)

Chain of Integrase (Q7ZJM1 whole entry): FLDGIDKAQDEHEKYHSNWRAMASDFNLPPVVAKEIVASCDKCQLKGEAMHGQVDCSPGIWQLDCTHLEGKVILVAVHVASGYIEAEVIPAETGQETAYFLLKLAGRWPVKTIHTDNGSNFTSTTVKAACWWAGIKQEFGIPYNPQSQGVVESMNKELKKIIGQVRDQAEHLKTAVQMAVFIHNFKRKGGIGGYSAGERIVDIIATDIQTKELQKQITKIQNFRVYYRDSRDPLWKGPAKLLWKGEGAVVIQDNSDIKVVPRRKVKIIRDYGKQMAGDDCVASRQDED

Row | SMILES | IC50
1 | O=C(C=Cc1ccccc1)CC(=O)C=Cc1ccccc1 [5-Hydroxy-1,7-diphenylhepta-1,4,6-trien-3-one] | 100 µM
2 | COc1ccc(C=CC(=O)CC(=O)C=Cc2ccc(OC)c(OC)c2)cc1OC [(1E,4Z,6E)-1,7-bis(3,4-dimethoxyphenyl)-5-hydroxyhepta-1,4,6-trien-3-one] | 100 µM

Reference: BindingDB's records for doi:10.1021/jm010399h (University of Tennessee Health Science Center, 2002)
